In test [1] the test system is Tlp11-LBD (residues 32–332 of Tlp11). The test can be described thus: Thermal shift assay (TSA) of Tlp11-LBD. Type of test: binding, C. jejuni ATCC 33560. As for the experimental part: TSA measurements were performed using a quantitative Real-Time PCR System (LightCycler® 480; Roche, United States), to monitor the Tm of the LBD proteins. The compounds listed in Supplementary Table S2 were used as ligand candidates for the high-throughput screening. Each 25 μL mixture for the standard assay contained 20 μM protein, 1–2 mM compound in Buffer C, and SYPRO™ Orange dye (Life Technologies, United States), at 5× concentration. Samples were heated from 26°C to 85°C, with a ramp rate of 1.2°C min^−1, to denature the protein. Protein unfolding curves were recorded by detecting the changes in fluorescence. The Tm values were calculated using first-derivative values (dF/dT) from the raw data.
Fluorescence-based TSA, which has been widely used to discover direct-binding molecules of proteins with high efficiency ([Fernández et al., 2018]), was used to identify the ligand specificity of the C. jejuni chemoreceptor Tlp11. The Tlp11-LBD protein (residues 32–332 of Tlp11) from the strain C. jejuni ATCC 33560 was expressed and purified from E. coli. Hydrophobic reactive dyes were added to the purified protein sample, and the protein was heated to record the change in fluorescence intensity as the temperature increased during the denaturation process of the protein (see Materials and Methods). The melting temperature (Tm) of the target protein was obtained and represented as the midpoint of the protein unfolding transition. Most ligands stabilize the protein during binding, leading to an increase in Tm. Using TSA, we screened a compound library composed of 131 molecules (Supplementary Table S2) that commonly act as microbial carbon and nitrogen sources or metabolites in the human GI tract. Among the compounds in the library, methyl pyruvate elicited the most significant increase in Tm. In the absence of the ligand, the Tm of Tlp11-LBD was 38.3°C, while in the presence of 1 mM methyl pyruvate, the Tm increased by 1.1°C compared to buffer (Figure 1A).

For test [2], the target named is Tlp11-LBD L264A. Kind of test: MST of Tlp11-LBD mutant L264A. Type of test: binding, C. jejuni ATCC 33560. As to conditions: max ligand 2.5 mM. As for the experimental part:
(§1) The His-tag dye (MO-L018 RED-tris-NTA, NanoTemper, Germany) was adjusted to a final concentration of 25 nM and used to label the purified protein with a His-tag. The compound was diluted to a series of concentrations in phosphate-buffered saline ([Duan et al., 2023]) with 0.05% Tween 20 (PBS-T) buffer and mixed in a ratio of 1:1 with protein. The mixtures were loaded into capillaries (Monolith™ Series capillaries, NanoTemper) by means of capillary action. Thermophoresis was measured using a Monolith™ NT.115 (NanoTemper) instrument, with 40% excitation and 40% MST power configuration. The time-traces of changes in fluorescence, which reflected the thermophoretic movement of labeled protein affected by different concentrations of compound were recorded, and the dose–response curves were fitted with the ‘temperature jump and thermophoresis’ mode. Data analysis was performed using MO. Affinity Analysis version 2.3 (NanoTemper) and Prism version 8.0.2 (GraphPad Software, United States).
(§2) In order to confirm the contribution of L264, N268, I276, Y291, V318, and T320 to the binding to methyl pyruvate, we generated Tlp11-LBD proteins with an alanine point mutation at individual residues, to obtain the mutant proteins L264A, N268A, I276A, Y291A, V318A, and T320A, and then analyzed the binding affinities of methyl pyruvate to these mutants using MST. […]

Test [3] deals with Tlp11-LBD V318A. Kind of test: MST of Tlp11-LBD mutant V318A. The class given is binding, C. jejuni ATCC 33560. As to conditions: max ligand 2.5 mM. Here is the method:
as §1, §2

Test [4] concerns the target Tlp11-LBD homologue (WP_201459806.1, residues 32-332). Kind of test: MST of Tlp11-LBD homologue. The class given is binding, Campylobacter coli. As to conditions: C. coli LBD. Here is the method:
as §1
To evaluate whether these potential Tlp11-LBD homologues could bind to methyl pyruvate, we conducted a structural analysis of the LBDs of six chemoreceptors from C. coli, H. equorum, H. himalayensis, H. mesocricetorum, H. ganmani, and C. upsaliensis using Alphafold 2. […]

Test [5] has as its system Tlp11[1-342]-Tar[200-553] (Tlp342Tar200). Kind of test: Microfluidic chemotaxis of E. coli expressing hybrid chemoreceptor Tlp342Tar200. The class given is cell-based, E. coli VS188. As to conditions: microfluidic device, 50 min. Here is the method: The E. coli cells expressing hybrid chemoreceptor and GFP were grown in tryptone broth, up to an OD600 of 0.55, at 34°C, with shaking at 250 rpm. The cells were harvested by means of centrifugation at 5,000 rpm, washed twice with Tethering Buffer (10 mM KH2PO4, 10 mM K2HPO4, and 0.1 mM EDTA, pH 7.0), and resuspended in Tethering Buffer such that an OD600 of 5.5 was attained. The chemotactic responses of E. coli cells to the compounds were measured using a microfluidic device ([Si et al., 2012]). The collected E. coli cells were added to the sink pores of the device and allowed to freely diffuse into the observation channel for 40 min. Subsequently, the compound solution was added to the source pores, to establish a concentration gradient gradually in the observation channel of the device. Fluorescence intensity in the observation channel was detected using an LSM 800 laser scanning confocal microscope (Zeiss, Germany). Data were analyzed using ImageJ software.
To determine whether methyl pyruvate stimulates transmembrane signaling through Tlp11-LBD, we fused C. jejuni ATCC 33560 Tlp11-LBD with the cytoplasmic region of the E. coli chemoreceptor Tar to construct Tlp11-Tar hybrid chemoreceptors (Figure 3A). Five hybrid receptors with different fusion positions in the second transmembrane helix (TM2) were obtained: Tlp11[1-342]-Tar[200-553] (Tlp342Tar200), Tlp11[1-343]-Tar[200-553] (Tlp343Tar200), Tlp11[1-346]-Tar[204-553] (Tlp346Tar204), Tlp11[1-347]-Tar[204-553] (Tlp347Tar204), and Tlp11[1-348]-Tar[204-553] (Tlp348Tar204) (Supplementary Figure S5A). To verify the activities of these hybrid chemoreceptors, we expressed each protein as a chimera in green fluorescent protein (GFP)-labeled E. coli VS188 without any other chemoreceptors, such that each hybrid receptor served as the only chemoreceptor in the E. coli. […] These chemotactic responses triggered by glucose through the phosphotransferase system are independent of the chemoreceptor LBD ([Neumann et al., 2012]). […] Thus, we used this hybrid receptor for subsequent chemotaxis measurements.

A word on the Kd: it is a measure of binding affinity in units of concentration. The low end stands for higher affinity, the high end for lower affinity. Turning to `COC(=O)C(C)=O` [methyl pyruvate, Methyl pyruvate], the “Tm increase of Tlp11-LBD compared to buffer (ΔTm)” value in test [1] (1 mM compound, 20 μM protein) is 1.1 °C. In addition, the entries for the “ΔTm of Tlp11-LBD” value in test [1] (3 mM compound) and in test [1] (10 mM compound) were 1.3 °C and 2.8 °C, respectively. Besides, the “Kd (binding curve fit)” value in test [2] and in test [3] was “unable to obtain fitted Kd values” each time. Also, binding in test [4] was characterised by a dissociation constant (Kd) of 1.4 ± 0.5 mM. The “chemotactic response of E. coli expressing Tlp342Tar200 as the sole receptor” value in test [5] is listed as “strong attractant response”.

The values are drawn from PMC11111895, “Identification of a dCache-type chemoreceptor in Campylobacter jejuni that specifically mediates chemotaxis towards methyl pyruvate” (Frontiers in Microbiology, 2024).
